SMILES strings stand for the structures.

The first test concerns the target WDR5 (Homo sapiens (Human), UniProt P61964). Description: Surface Plasmon Resonance (SPR) assay, KD and residence time. In kind it is binding. The following applies: surface plasmon resonance (SPR) assay; read-out: WDR5 binding affinity (KD). A general note: Surface plasmon resonance follows binding to a sensor surface in real time, without labels.
As a reminder, the Kd is the equilibrium constant for the complex coming apart. For the compound `C[C@@H]1CN(c2cc(F)c(-c3cnc(N4CCOCC4)nc3)cc2NC(=O)c2c(Cl)cccc2Cl)C[C@H](C)N1C` [Example 139, 2,6-dichloro-N-[4-fluoro-5-(2-morpholin-4-ylpyrimidin-5-yl)-2-[(3R,5S)-3,4,5-trimethylpiperazin-1-yl]phenyl]benzamide], the Kd was 5.86 nM.
With `CC1CN(c2cc(F)c(-c3cnc(N4CCOCC4)nc3)cc2NC(=O)c2ccn(C)n2)CCN1C` (stereo in doubt) [Example 192, N-[4-fluoro-5-(2-morpholin-4-ylpyrimidin-5-yl)-2-[(3R)-3,4-dimethylpiperazin-1-yl]phenyl]-1-methylpyrazole-3-carboxamide], the Kd worked out at 1260 nM.
On the same count and under the same terms, with `C[C@@H]1CN(c2cc(F)c(-c3cnc(N4CCOCC4)nc3)cc2NC(=O)c2cn(C)c(=O)cc2C(F)F)C[C@H](C)N1C` [Example 342, 4-(difluoromethyl)-N-[4-fluoro-5-(2-morpholin-4-ylpyrimidin-5-yl)-2-[(3R,5S)-3,4,5-trimethylpiperazin-1-yl]phenyl]-1-methyl-6-oxopyridine-3-carboxamide] the figure was 6.87 nM.
As to `CC(C)Oc1ncc(-c2cc(NC(=O)c3c[nH]c(=O)cc3C(F)(F)F)c(N3CCN(C)C(C)C3)cc2F)cn1` (stereo in doubt) [Example 240, N-[4-fluoro-5-(2-propan-2-yloxypyrimidin-5-yl)-2-[(3R)-3,4-dimethylpiperazin-1-yl]phenyl]-6-oxo-4-(trifluoromethyl)-1H-pyridine-3-carboxamide], the Kd came out at 2.23 nM.
As for `C[C@@H]1CN(c2cc(F)c(-c3cnc(N4CCOCC4)nc3)cc2NC(=O)c2cccc3c2OCO3)C[C@H](C)N1C` [Example 105, N-[4-fluoro-5-(2-morpholin-4-ylpyrimidin-5-yl)-2-[(3R,5S)-3,4,5-trimethylpiperazin-1-yl]phenyl]-1,3-benzodioxole-4-carboxamide], the Kd is 466 nM.
Consider `C[C@@H]1CN(c2cc(F)c(C3=CCN(Cc4ccc(N5CCN(C)CC5)cc4)CC3)cc2NC(=O)c2c[nH]c(=O)cc2C(F)(F)F)C[C@H](C)N1C` [Example 166, N-[4-fluoro-5-[1-[[4-(4-methylpiperazin-1-yl)phenyl]methyl]-3,6-dihydro-2H-pyridin-4-yl]-2-[(3R,5S)-3,4,5-trimethylpiperazin-1-yl]phenyl]-6-oxo-4-(trifluoromethyl)-1H-pyridine-3-carboxamide], for which the dissociation constant (Kd) amounted to 0.23 nM.
Regarding `C[C@@H]1CN(c2cc(F)c(-c3cnc(N4CCNCC4)nc3)cc2NC(=O)c2c[nH]c(=O)cc2C(F)(F)F)C[C@H](C)N1C` [Example 158, N-[4-fluoro-5-(2-piperazin-1-ylpyrimidin-5-yl)-2-[(3R,5S)-3,4,5-trimethylpiperazin-1-yl]phenyl]-6-oxo-4-(trifluoromethyl)-1H-pyridine-3-carboxamide], the Kd amounted to 0.345 nM.
On to `C[C@@H]1CN(c2cc(F)c(-c3cnc(N4CCOCC4)nc3)cc2NC(=O)c2ccc(F)cc2Cl)C[C@H](C)N1C` [Example 87, 2-chloro-4-fluoro-N-[4-fluoro-5-(2-morpholin-4-ylpyrimidin-5-yl)-2-[(3R,5S)-3,4,5-trimethylpiperazin-1-yl]phenyl]benzamide], for which the Kd amounted to 8.21 nM.
As to `C[C@@H]1CN(c2cc(F)c(-c3ccnc(C#N)c3)cc2NC(=O)c2c[nH]c(=O)cc2C(F)(F)F)C[C@H](C)N1C` [Example 133, N-[5-(2-cyanopyridin-4-yl)-4-fluoro-2-[(3R,5S)-3,4,5-trimethylpiperazin-1-yl]phenyl]-6-oxo-4-(trifluoromethyl)-1H-pyridine-3-carboxamide], the Kd is 1.33 nM.

Still in this test, the particulars now being: surface plasmon resonance (SPR); read-out: WDR5 binding affinity (KD).
In the case of `C[C@@H]1CN(c2cc(F)c(-c3ccc(N4CCOCC4)c(F)c3)cc2NC(=O)c2c[nH]c(=O)cc2C(F)F)C[C@H](C)N1C` [Example 436, 4-(difluoromethyl)-N-[4-fluoro-5-(3-fluoro-4-morpholin-4-ylphenyl)-2-[(3R,5S)-3,4,5-trimethylpiperazin-1-yl]phenyl]-6-oxo-1H-pyridine-3-carboxamide], the Kd turned out to be 1.39 nM.
As to `CC(C)OC(=O)N1CC=C(c2cc(NC(=O)c3c[nH]c(=O)cc3C(F)(F)F)c(N3C[C@@H](C)N(C)[C@@H](C)C3)cc2F)CC1` [Example 602, propan-2-yl 4-[2-fluoro-5-[[6-oxo-4-(trifluoromethyl)-1H-pyridine-3-carbonyl]amino]-4-[(3R,5S)-3,4,5-trimethylpiperazin-1-yl]phenyl]-3,6-dihydro-2H-pyridine-1-carboxylate], the Kd is 0.475 nM.
For `C[C@@H]1CN(c2cc(F)c(-c3ccc(C(=O)NC4CCCCC4(C)C)c(F)c3)cc2NC(=O)c2c[nH]c(=O)cc2C(F)(F)F)C[C@H](C)N1C` (stereo partly drawn) [Example 747, N-[5-[4-[(2,2-dimethylcyclohexyl)carbamoyl]-3-fluorophenyl]-4-fluoro-2-[(3R,5S)-3,4,5-trimethylpiperazin-1-yl]phenyl]-6-oxo-4-(trifluoromethyl)-1H-pyridine-3-carboxamide], the Kd stood at 4.85 nM.
`C[C@H]1CN(c2cc(F)c(C3=CCN(C(=O)OC4CC(F)(F)C4)C3)cc2NC(=O)c2c[nH]c(=O)cc2C(F)F)CCN1C` [Example 638, 3,3-Difluorocyclobutyl (S)-3-(5-(4-(difluoromethyl)-6-oxo-1,6-dihydropyridine-3-carboxamido)-4-(3,4-dimethylpiperazin-1-yl)-2-fluorophenyl)-2,5-dihydro-1H-pyrrole-1-carboxylate]: the Kd came to 2.27 nM.
Turning to `C[C@@H]1CN(c2nccc(-c3cc(NC(=O)c4ccc(F)cc4C(F)(F)F)c(N4CCN(C)[C@H](C)C4)cc3F)n2)CCO1` (stereo in doubt) [Example 660, 4-fluoro-N-[4-fluoro-2-[(3R)-3,4-dimethylpiperazin-1-yl]-5-[2-[(2R)-2-methylmorpholin-4-yl]pyrimidin-4-yl]phenyl]-2-(trifluoromethyl)benzamide], the dissociation constant (Kd) is 0.29 nM.
Still for that read-out and setting: the value for `C[C@@H]1CN(c2cc(F)c(-c3cnc(N4CCOCC4)s3)cc2NC(=O)c2cn(C)c(=O)cc2C(F)F)C[C@H](C)N1C` [Example 623, 4-(difluoromethyl)-N-[4-fluoro-5-(2-morpholin-4-yl-1,3-thiazol-5-yl)-2-[(3R,5S)-3,4,5-trimethylpiperazin-1-yl]phenyl]-1-methyl-6-oxopyridine-3-carboxamide] was 5.57 nM.
For the compound `C[C@@H]1CN(c2cc(F)c(C3=CCN(C(=O)OC4CC(F)(F)C4)C3)cc2NC(=O)c2c[nH]c(=O)cc2C(F)F)C[C@H](C)N1C` [Example 637, 3,3-Difluorocyclobutyl 3-(5-(4-(difluoromethyl)-6-oxo-1,6-dihydropyridine-3-carboxamido)-2-fluoro-4-((3S,5R)-3,4,5-trimethylpiperazin-1-yl)phenyl)-2,5-dihydro-1H-pyrrole-1-carboxylate], the Kd worked out at 2.26 nM.
Take `C[C@@H]1CN(c2cc(F)c(-c3ncc(C(=O)N4CCN(C)CC4)s3)cc2NC(=O)c2c[nH]c(=O)cc2C(F)(F)F)C[C@H](C)N1C` [Example 501, N-[4-fluoro-5-[5-(4-methylpiperazine-1-carbonyl)-1,3-thiazol-2-yl]-2-[(3R,5S)-3,4,5-trimethylpiperazin-1-yl]phenyl]-6-oxo-4-(trifluoromethyl)-1H-pyridine-3-carboxamide]: the Kd is 3.44 nM.
Take `C[C@@H]1CN(c2cc(F)c(-c3ccc4ncn(C)c4c3)cc2NC(=O)c2c[nH]c(=O)cc2C(F)(F)F)C[C@H](C)N1C` [Example 676, N-[4-fluoro-5-(3-methylbenzimidazol-5-yl)-2-[(3R,5S)-3,4,5-trimethylpiperazin-1-yl]phenyl]-6-oxo-4-(trifluoromethyl)-1H-pyridine-3-carboxamide]: the Kd came out at 4.39 nM.
On to `C[C@@H]1CN(c2cc(F)c(-c3csc(CN4CCOCC4)c3)cc2NC(=O)c2c[nH]c(=O)cc2C(F)(F)F)C[C@H](C)N1C` [Example 494, N-[4-fluoro-5-[5-(morpholin-4-ylmethyl)thiophen-3-yl]-2-[(3R,5S)-3,4,5-trimethylpiperazin-1-yl]phenyl]-6-oxo-4-(trifluoromethyl)-1H-pyridine-3-carboxamide], for which the dissociation constant (Kd) was 3.01 nM.
For `C[C@@H]1CN(c2cc(F)c(-c3ccc(C(N)=O)c(F)c3)cc2NC(=O)c2c[nH]c(=O)cc2C(F)F)C[C@H](C)N1C` [Example 553, N-[5-(4-carbamoyl-3-fluorophenyl)-4-fluoro-2-[(3R,5S)-3,4,5-trimethylpiperazin-1-yl]phenyl]-4-(difluoromethyl)-6-oxo-1H-pyridine-3-carboxamide], the Kd is 1 nM.
Consider `C[C@H]1CN(c2cc(F)c(C3=CCN(C(=O)N4CCCC4)C3)cc2NC(=O)c2c[nH]c(=O)cc2C(F)F)CCN1C` [Example 629, (S)-4-(Sifluoromethyl)-N-(2-(3,4-dimethylpiperazin-1-yl)-4-fluoro-5-(1-(pyrrolidine-1-carbonyl)-2,5-dihydro-1H-pyrrol-3-yl)phenyl)-6-oxo-1,6-dihydropyridine-3-carboxamide], for which the Kd came out at 2.22 nM.
`C[C@@H]1CN(c2ncc(-c3cc(NC(=O)c4cn(C)c(=O)cc4C(F)(F)F)c(N4CC[C@@H](N(C)C)C4)cc3F)cn2)C[C@H](C)O1` (racemic) [Example 426, N-[4-fluoro-2-[(3S)-3-(dimethylamino)pyrrolidin-1-yl]-5-[2-[(2R,6S)-2,6-dimethylmorpholin-4-yl]pyrimidin-5-yl]phenyl]-1-methyl-6-oxo-4-(trifluoromethyl)pyridine-3-carboxamide]: the Kd turned out to be 10.9 nM.
In the case of `CNC1CCN(c2cc(F)c(-c3cnc(N4CCOCC4)nc3)cc2NC(=O)c2c[nH]c(=O)cc2C(F)(F)F)CC1` [Example 541, N-[4-fluoro-2-[4-(methylamino)piperidin-1-yl]-5-(2-morpholin-4-ylpyrimidin-5-yl)phenyl]-6-oxo-4-(trifluoromethyl)-1H-pyridine-3-carboxamide], the Kd is 7.44 nM.
Regarding `C[C@@H]1CN(c2cc(F)c(-c3csc(C(=O)N4CCN(C)CC4)n3)cc2NC(=O)c2cn(C)c(=O)cc2C(F)(F)F)C[C@H](C)N1C` [Example 528, N-[4-fluoro-5-[2-(4-methylpiperazine-1-carbonyl)-1,3-thiazol-4-yl]-2-[(3R,5S)-3,4,5-trimethylpiperazin-1-yl]phenyl]-1-methyl-6-oxo-4-(trifluoromethyl)pyridine-3-carboxamide], the Kd was 4.05 nM.

Values taken from patent US11319299B2, “Substituted carboxamides as inhibitors of WDR5 protein-protein binding” (PROPELLON THERAPEUTICS INC., priority 2016, dated 2022).
